Key:
[1] = system: white spruce somatic embryos; experiment: Varying ABA and PEG during development, precocious germination observations (Example 2); format: cell-based; conditions: 6 weeks
Experimental: In order to test the above hypothesis, various concentrations of PEG and ABA were tested and modified during development of white spruce somatic embryos.
The starting treatments were prepared as outlined in Table 2.
The embryos were transferred to fresh medium every two weeks over a six week period. Observations were then recorded. The treatments consisted of the following ABA concentrations and media water potentials, with three replicates per treatment.

[2] = system: somatic embryos; experiment: High intensity water stressing and ABA, inhibition of precocious germination (Example 3); format: cell-based, white spruce and Norway spruce
Experimental: Somatic embryos were plated on medium containing PEG adjusted to 290 mmol/kg PEG and 16 μM ABA then either transferred to fresh medium of the same composition every two weeks, or transferred every two weeks to medium containing increasing ABA and PEG as outlined in Table 3.

[3] = system: Norway spruce somatic embryos; experiment: Norway spruce culture with raised ABA and PEG (Example 5); format: cell-based
Experimental: Norway spruce was cultured using the same protocol as developed for white spruce. Thus, somatic embryos from full hormone suspension culture were transferred to hormone-free liquid culture medium (half-strength Litvay's medium, 3% sucrose) for one week, then transferred (0.75 mL of 20% suspension) to maturation medium in petri dishes.
The first medium contained PEG adjusted to 290 mmol/kg and 20 μM ABA. After two weeks, the cultures were transferred on their filter paper supports to fresh medium of the same composition, or to medium containing PEG adjusted to 400 mmol/kg and 30 μM ABA. After a further two weeks (i e., the fourth week of culture), the somatic embryos were transferred either to PEG media at a water potential of 400 mmol/kg and 40 μM ABA, or to PEG medium of 540 mmol/kg and 40 μM ABA. Somatic embryos were also plated on medium containing 20 μM ABA and no PEG.

[4] = system: white spruce somatic embryos; experiment: Germination and transfer to soil after increasing PEG/ABA culture (Example 8); format: cell-based
Experimental: In another experiment, white spruce somatic embryos were transferred through the 1/20 hormone increasing PEG/ABA liquid maturation culture (Example 7, treatment 8), then plated onto 20-40 μM ABA, 290-540 mmol/kg PEG transfer schedule (Example 4, treatment 6) followed by desiccation at 4° C. 203 embryos were selected and germinated at 4-12° C. for 4 weeks and produced roots and shoots with needles at a frequency of 191/203=94%. White spruce somatic seedlings produced subsequently using these methods survived transfer to soil in a greenhouse and underwent continued growth at frequencies of 95-100%. However, prolonging maturation of cotyledonary embryos in the presence of high water stress and ABA was detrimental to germination. Thus, after seven to eight weeks of culture of spruce somatic embryos the germination vigour (seedling elongation) and frequencies decreased. Late stage water stress of mid to late cotyledonary stage embryos to below about 30-40% moisture content preferably should not be carried out in the presence of a replenishing source of ABA. This will presumably prevent build up of endogenous ABA, and allow endogenous ABA levels to naturally decline.

[5] = system: Western larch somatic embryos; experiment: Western larch somatic embryogenesis (Example 10); format: cell-based, Western larch (Larix occidentalis Nutt.)
Experimental: In order to test the effect of increased ABA and osmoticum, somatic embryos were first cultured on ½ LM full hormone proliferation medium, then transferred to hormone-free preculture medium with 3% sucrose for one week prior to plating 0.75 mL of a 20% (w/v) suspension culture onto filter paper supports overlaying solidified maturation medium. The somatic embryos were plated on PEG medium of 330 mmol/kg and 16 μM ABA, then transferred to 380 mmol/kg PEG medium, 24 ABA after 1 week, then transferred to 450 mmol/kg PEG medium, 32 μM ABA after the third week. These were then either desiccated at week 5 or were transferred to 540 mmol/kg PEG, 40 μM ABA for up to two more weeks before desiccating.

[6] = system: Douglas fir somatic embryos; experiment: Douglas fir somatic embryogenesis (Example 11); format: cell-based
Experimental: Douglas fir may be cultured using sucrose at 1-3% (30-90 mM), however, other sugars may be used at the same concentrations. Maintenance cultures usually contain the sugar at about 1%. […] Douglas fir embryogenic tissue was induced from developing seed. Embryos contained in megametophytes were induced and maintained on TX maintenance medium having 1% sucrose. This medium contained 0.2 g/L glutamine and 0.2 g/L casein hydrolysate. Selected embryogenic tissue was subcultured biweekly per petri dish. Medium was solidified with 2.4 g/L PHYTAGEL™. This medium contained 9 μM 2,4-D and 4.5 μM BA. Liquid suspension cultures were maintained in flasks containing 50 mL liquid maintenance medium Liquid cultures were subcultured weekly. For maturation, the embryogenic suspension was first precultured in liquid medium without growth regulators, and subcultured weekly. The water potential of the maintenance cultures and precultures remained below 150 mmol/kg. After one or two weeks of preculture, 1 to 2 g of filtered tissue was resuspended in 10 mL fresh medium and 0.75 mL of the new suspension was pipetted onto the solid maturation medium. Maturation medium contained calcium chloride at 105 mg/L, and ammonium nitrate was included at 400 mg/L. Glutamine was used at 0.8 g/L for the first week then reduced to 0.1 g/L thereafter. Casein hydrolysate was maintained at 0.2 g/L. The sugar was increased to 2-3% and the medium was solidified with Phytagel at 2.8 to 3.4 g/L. ABA was added into the medium after filter sterilization. The maturation medium also contained PEG. The ABA and water potential were raised following the schedule in the following table.
In some instances, the PEG was reduced and the water potential made up to the desired level using lactose at 0% in the first week, 1% in week 2, 4% in weeks 3 and 4, 5% in week 5, and 6% in week 6. Although this allowed a firmer gel to set than otherwise would occur with PEG alone, it may not provide any other benefit over full PEG (see, for example, Table 8), particularly if liquid culture medium is used. […] The embryos were desiccated and stored in a freezer as described for spruce, or germinated directly without desiccation. For germination, embryos were placed on half-strength basal medium containing 0.4 g/L calcium nitrate, 0.2 g/L ammonium nitrate, no hormones and 2% sucrose and 0.6% agar. These were grown in the light.

[7] = ABA 30 to 60 μM and water potential 294 to 814 mmol/kg over 6 weeks

Q: How did the “observations (greening, precocious germination)” value (shortened to “observations”) ([1]; Expt A (start PEG 260 mmol/kg, ABA 16 μM), 1. Control, fresh medium of the same composition) turn out when `CC1=CC(=O)CC(C)(C)[C@@]1(O)/C=C/C(C)=C\C(=O)O` [ABA, abscisic acid] was run?
A: green, cotyledon elongation

Q: What about the “observations” value ([1]; Expt A (start PEG 260 mmol/kg, ABA 16 μM), 2. Raise ABA (24, 32 μM)) of the same molecule?
A: slight or no greening

Q: What about the “observations” value ([1]; Expt A (start PEG 260 mmol/kg, ABA 16 μM), 5. Raise PEG (290, 320 mmol/kg), raise ABA (24, 32 μM)) of the same molecule?
A: slight or no greening

Q: And the “observations” value ([1]; Expt B (start PEG 260 mmol/kg, ABA 24 μM), 1. Control, fresh medium of the same composition)?
A: greening

Q: And the “observations” value ([1]; Expt B (start PEG 260 mmol/kg, ABA 24 μM), 2. Raise ABA (32, 32 μM))?
A: no greening

Q: And the “observations” value ([1]; Expt B (start PEG 260 mmol/kg, ABA 24 μM), 5. Raise PEG (290, 320 mmol/kg), raise ABA (32, 32 μM))?
A: slight or no greening

Q: And the “observations” value ([1]; Expt C (start PEG 290 mmol/kg, ABA 8 μM), 2. Raise ABA (16, 24 μM))?
A: greening

Q: What about the “observations” value ([1]; Expt C (start PEG 290 mmol/kg, ABA 8 μM), Raise PEG (12, 14%), raise ABA (16, 24 μM)) of the same molecule?
A: none or slight greening

Q: What about the “observations” value ([1]; Expt D (start PEG 290 mmol/kg, ABA 16 μM), 2. Raise ABA (24, 32 μM)) of the same molecule?
A: no greening

Q: What about the “observations” value ([1]; Expt D (start PEG 290 mmol/kg, ABA 16 μM), 4. Raise PEG (290, 320), lower ABA (8, 8 μM)) of the same molecule?
A: greening

Q: What about the “observations” value ([1]; Expt D (start PEG 290 mmol/kg, ABA 16 μM), 5. Raise PEG (290, 320), raise ABA (24, 32 μM)) of the same molecule?
A: no greening

Q: What about the precocious germination ([2]; maintained on 290 mmol/kg PEG and 16 μM ABA, fresh medium every two weeks, week 10) of the same molecule?
A: precociously germinated

Q: And the precocious germination ([2]; schedule of increasing ABA (16 to 56 μM) and PEG (290 to 650 mmol/kg), biweekly transfer, 10 weeks)?
A: no evidence of precocious germination

Q: What about the “appearance, precocious germination” value ([3]; 20 μM ABA, no PEG, after six weeks) of the same molecule?
A: green and elongated

Q: What about the “appearance, precocious germination” value ([3]; 290 mmol/kg PEG medium and 20 μM ABA, after six weeks) of the same molecule?
A: green and some had dark green tips to their cotyledons

Q: And the “appearance, precocious germination” value ([3]; completed the 400 mmol/kg PEG, 40 μM ABA treatment, six weeks)?
A: yellow with a greenish tinge

Q: What about the “appearance, precocious germination” value ([3]; completed the 540 mmol/kg PEG, 40 μM ABA treatment, six weeks) of the same molecule?
A: small and white with no evidence of precocious germination

Q: And the “frequency of roots and shoots with needles” value ([4]; Example 7 treatment 8, then 20-40 μM ABA, 290-540 mmol/kg PEG schedule, desiccation at 4° C., germinated at 4-12° C. for 4 weeks)?
A: 94%

Q: And the “survival of transfer to soil in a greenhouse with continued growth” value ([4]; somatic seedlings produced using increasing PEG/ABA methods)?
A: 95-100%

Q: What about the “production of mature embryos” value ([5]; ABA and a mild water stress of 3% sucrose) of the same molecule?
A: rarely produced mature embryos

Q: And the “plantlets after desiccation and germination” value ([5]; PEG 330 to 450 or 540 mmol/kg with ABA 16 to 32 or 40 μM, desiccated and germinated)?
A: viable somatic plantlets with root and developing needles

Q: And the precocious germination ([5]; PEG 330 to 450 or 540 mmol/kg with ABA 16 to 32 or 40 μM, five to seven weeks of culture)?
A: inhibited from germinating precociously

Q: And the “germination with shoot and needle development, frequency” value [6, 7]?
A: ~100%

Q: And the precocious germination [6, 7]?
A: Precocious germination was prevented

Q: What about the “survival after transfer to soil in a greenhouse, frequency” value ([6]; somatic plants produced using the methods of this invention) of the same molecule?
A: up to 95%

Source: patent US6627441B1, “Increasing levels of growth regulator and/or water stress during embryo development” (priority 1998, dated 2003)
